Patent US20090036488A1, “RECURRENCE PREVENTIVE THERAPEUTIC AGENT FOR PSYCHOSTIMULANT-INDUCED PSYCHOSIS AND SCHIZOPHRENIA” (Tokyo Medical and Dental University, priority 2005, published 2009)

Tests used:
[1] = tested on: MAP reverse tolerance model; assay: Test to confirm effects of administration with fluoxetine or paroxetine in the MAP reverse tolerance model; format: in vivo, mice
Protocol: Regarding formation of reverse tolerance, 1 mg/kg/day MAP was administered to eight-week-old male ddy mice for ten days as a pretreatment in a similar way to the abovementioned method. After a 11-day washout period, 10 mg/kg/day fluoxetine was then administered. Fluoxetine was prepared by dissolving in saline and administered by subcutaneous injection. In addition, after 9 to 11-day washout period, 0.24 mg/kg MAP was administered, the locomotor hyperactivity of the mice was measured and evaluated one hour later.
Regarding formation of reverse tolerance, MAP 1 mg/kg/day […] was administered to eight-week-old male ddy mice for ten days as a pretreatment in a similar way to the abovementioned method. After an 11-day washout period, 8 mg/kg/day paroxetine was then administered. Paroxetine was prepared by dissolving in saline and administered by subcutaneous injection. In addition, after 9 to 11-day washout period, 0.24 mg/kg MAP was administered, and the locomotor hyperactivity of the mice was measured and evaluated one hour later.

[2] = tested on: male ddy mice; assay: Test for formation/maintenance of reverse tolerance; format: in vivo
Protocol: Methamphetamine (hereinafter, may be also referred to as “MAP”) which is a psychostimulant was administered to an animal, and then formation/maintenance of reverse tolerance was verified. In this test, eight-week-old male ddy mice were used. […] First, mice were divided into two groups, and then 1 mg/kg/day MAP and saline were respectively administered to each group for ten days as pretreatment. The agent was prepared by dissolving in saline and administered by subcutaneous injection. Hereinafter, the group to which MAP was administered is called “MAP administrated group”, and the group to which saline was administered is called “SAL administrated group”. MAP of 1 mg/kg used here corresponds an amount to result in increase in locomotor hyperactivity when it is administered to mice. In addition, a first administration of MAP was conducted after a 10-day washout period in order to confirm if this phenomenon was maintained. The dosage, 0.24 mg/kg, was less than that of the pretreatment, which is reportedly a quantity not causing abnormal behavior to appear in normal mice received the administration. Then, following a 29-day washout period, a second administration was conducted. Upon the administration on the day 10 and the day 29, MAP was also administered to the SAL administrated group in the same amount as administered to the MAP administrated group.
During the pretreatment, activity quantity in an hour was measured after MAP or saline administration on Days 1, 3, 7, and 10. […] In the case of a typical drug administration, tolerance is formed to gradually decrease influences of the administered drug.
In addition, comparing the MAP administrated group with the SAL administrated group, in both administrations on day 10 and day 29, it was clear that the activity quantity of the MAP administrated group was higher, so that it was confirmed that influences of the drug were maintained even after a longer than one-month washout period.

CNCCC(Oc1ccc(C(F)(F)F)cc1)c1ccccc1 (stereo not drawn) [FLX, fluoxetine]
locomotor hyperactivity vs group without FLX in the treatment phase (Example 1 vs Comparative Example 7) ([1]; MAP 1 mg/kg/day for 10 days, 11-day washout, fluoxetine 10 mg/kg/day s.c., 9 to 11-day washout, 0.24 mg/kg MAP, measured one hour later): locomotor hyperactivity decreased
reverse tolerance, vs group in which reverse tolerance was not formed (Example 1 vs Comparative Example 3) ([1]; fluoxetine 10 mg/kg/day s.c. after MAP pretreatment, 0.24 mg/kg MAP challenge): reverse tolerance disappeared
effect of FLX itself on activity quantity (Comparative Example 1 vs 2, 3 vs 4) ([1]; saline pretreatment, reverse tolerance not formed, fluoxetine 10 mg/kg/day s.c.): did not decrease the activity quantity

CN[C@@H](C)Cc1ccccc1 [MAP, Methamphetamine]
activity quantity after MAP re-administration, MAP administrated group vs SAL administrated group ([2]; 0.24 mg/kg MAP on day 10 and day 29 after washout): higher
formation of reverse tolerance ([2]; MAP 1 mg/kg/day s.c. for ten days): reverse tolerance was formed
activity quantity in an hour (locomotor hyperactivities per hour) during pretreatment ([2]; MAP 1 mg/kg/day s.c. for ten days, measured on Days 1, 3, 7 and 10): increased in a time dependent manner

Fc1ccc([C@@H]2CCNC[C@H]2COc2ccc3c(c2)OCO3)cc1 [PLX, paroxetine]
locomotor hyperactivity vs group without PLX in the treatment phase (Example 2 vs Comparative Example 14) ([1]; MAP 1 mg/kg/day for 10 days, 11-day washout, paroxetine 8 mg/kg/day s.c., 9 to 11-day washout, 0.24 mg/kg MAP, measured one hour later): locomotor hyperactivity decreased
reverse tolerance, vs group in which reverse tolerance was not formed (Example 2 vs Comparative Example 10) ([1]; paroxetine 8 mg/kg/day s.c. after MAP pretreatment, 0.24 mg/kg MAP challenge): reverse tolerance disappeared
effect of PLX itself on activity quantity (Comparative Example 8 vs 9, 10 vs 11) ([1]; saline pretreatment, reverse tolerance not formed, paroxetine 8 mg/kg/day s.c.): did not decrease activity quantity
